In patent US20050054629A1, “Compounds and methods of treating cell proliferative diseases” (priority 2002, published 2005):
Where two headings read alike, the source gives them in different places.

Key:
cell architecture = test: Cell architecture modification, phase contrast; format: cell-based; parameters: key: −: no effect of the compound was observed; +: an effect of the compound was observed
NIH3T3 cells = test: Colony formation assay with constitutively activated Ras (RasV12) and Rac (RacV12); format: cell-based, mouse; parameters: key to Colony formation: −: no effect of the compound was observed; +: an effect of the compound was observed
Method: (§1) The impact of the compounds on Ras and Rac signaling pathways was analysed with two reporter systems described by Imler (Nature 1988) and Lin (Science, 1995) respectively on one hand, and by a colony formation assay in the presence of constitutively activated Ras (RasV12) and Rac (RacV12) on the other hand. For this latter experiment, fifty percent confluent NIH3T3 cells in a 10 cm diameter petri dish were transfected with 0.5 μg pSV2-RasV12 or 0.5 μg pEXV RacV12 plasmids plus 100 ng of pSV2-neomycin plasmid using Lipofectamine-Plus reagent (Invitrogen) according to the manufacturer's instructions. Forty-eight hours later, cells were trypsinised, splitted to ⅓, and incubated in the presence of complete medium supplemented with 400 μg/ml geneticin (Invitrogen) and different doses of compound (1, 10, 17.5, 25 and 50 μM) until emerging resistant clones appear (2-3 weeks). The medium was renewed every 3 days. Colonies with a minimum of 50 cells were counted after staining with Fuschin 2%.

MDA-MB-231 cells [1] = test: Migration assay (Boyden chamber, non-coated filters); format: cell-based, human; details: MDA-MB-231, Boyden chamber
Method: (§2) One day after seeding, 10^6 MDA-MB-231 cells were treated overnight with different concentrations of compounds (1, 10, 17.5, 25 and 50 μM). Cells were collected with Versene (Invitrogen), counted with trypan blue exclusion, rinsed twice in serum-free medium containing 0.1% BSA and resuspended in serum-free medium containing 0.1% BSA plus the appropriate concentration of compound. 10^5 treated cells were placed in the upper chamber. Medium containing 10% of FBS plus the appropriate concentration of compound was placed in the lower chamber as a chemoattractant. The Boyden chamber was incubated 6 hours at 37° C. before the cells were fixed and stained with Diff-Quick (Dade-Berhing). Cells on the upper part of the filters were removed using a cotton swab. Cells on the underside of the filters were visualised and counted under light microscope.
The migration assay was performed the same way, using non-coated filters.

[2] = test system: HCT116 colon adenocarcinoma; test: Cytotoxicity assay (MTT), 6 days; format: cell-based, human; details: 6 days of treatment, read-out: Toxicity 6d (IC 50, μM) HCT116
Description: (§3) Four human tumoral cell lines, namely HCT116 colon adenocarcinoma, H460 lung carcinoma, MCF-7 and MDA-MB-231 breast carcinoma cell lines, and three immortalized but non tumorigenic cell lines, namely NIH3T3 mouse fibroblasts and human breast-derived MCF10-A and MRC-5 were purchased at ATCC and cultured according to their recommendations. In order to determine the cytotoxicity associated with one compound, a microculture tetrazolium assay (MTT), as described by Carmichael et al (Cancer Res, 1996) with modifications, was used. Briefly, 5.10^3 or 2.10^4 cells were seeded per well in 24-well plates 24 hours before drug addition. Cells were treated with 0, 1, 10, 17.5, 25 and 50 μM of compound solubilized in DMSO, adjusting the total volume of DMSO (Dimethylsulfoxide) to 1%. Forty-eight hours or 6 days after treatment, the medium was replaced by PBS containing 0.5 mg/ml MTT (Sigma) and cells were incubated for 3 more hours at 37° C. before solubilization of formazan crystals in 100% DMSO. Absorbance was measured using a spectrophotometer at a wavelength of 550 nm. Cell surviving fraction and 50% inhibitory concentration were calculated. All assays were performed in triplicate.

H460 lung carcinoma = test: Cytotoxicity assay (MTT), 6 days; format: cell-based; details: Homo sapiens, NCI-H460, 144 h, 6 days of treatment, read-out: Toxicity 6d (IC 50, μM) H460
Description: as §3

[3] = test system: MDA-MB-231 breast carcinoma; test: Cytotoxicity assay (MTT), 6 days; format: cell-based; details: Homo sapiens, MDA-MB-231, 144 h, 6 days of treatment, read-out: Toxicity 6d (IC 50, μM) MDA231
Description: as §3

MCF-7 breast carcinoma = test: Cytotoxicity assay (MTT), 6 days; format: cell-based; details: Homo sapiens, MCF7, 144 h, 6 days of treatment, read-out: Toxicity 6d (IC 50, μM) MCF7
Description: as §3

NIH3T3 mouse fibroblasts = test: Cytotoxicity assay (MTT), 6 days; format: cell-based; details: NIH3T3, 144 h, 6 days of treatment, read-out: Toxicity 6d (IC 50, μM) NIH3T3
Description: as §3

MCF10-A = test: Cytotoxicity assay (MTT), 6 days; format: cell-based; details: Homo sapiens, MCF-10A, 144 h, 6 days of treatment, read-out: Toxicity 6d (IC 50, μM) MCF10-A
Description: as §3

MRC-5 = test: Cytotoxicity assay (MTT), 6 days; format: cell-based; details: Homo sapiens, MRC5, 144 h, 6 days of treatment, read-out: Toxicity 6d (IC 50, μM) MRC-5
Description: as §3

MDA-MB-231 cells [4] = test: Matrigel invasion assay (Boyden chamber); format: cell-based, human; details: MDA-MB-231, Boyden chamber, matrigel
Method: Chemoinvasion assay was performed in Boyden chamber as described by Albini et al (Cancer Res, 1987) with some modifications. Polycarbonate membranes with 8 μm pores were coated with matrigel (125 μg/cm^2) at room temperature for 48 h. Two hours before experiments, the matrix was […] with serum-free medium containing 0.1% BSA.
as §2

Ras = test: Ras-dependant signaling pathway analysis (reporter system); format: cell-based; parameters: key: −: no effect of the compound was observed; +: an effect of the compound was observed
Method: as §1

NIH3T3 = test: Cytoskeleton analysis, actin staining (FITC-phalloidin); format: cell-based, mouse
Method: Since major rearrangements of cytoskeleton are observed in tumor cells and since the small GTPases are known to regulate these events, analysis of actin cytoskeleton was performed. Subconfluent cells seeded onto coverslips were treated with different concentration of compound (1, 10, 17.5, 25 and 50 μM) or vehicle for 24 h, before being fixed in 4% formaldehyde for 15 min., permeabilized in 0.2% Triton X100 for 5 minutes and incubated in PowerBlock (Biogenex) for 10 min. Actin filaments were stained with 0.5 μg/ml fluorescein isothiocyanate (FITC)-labelled phalloidin for 1 hour. Analysis was performed using an inverted fluorescent microscope.

HCT116 cells = test: Anchorage-independent growth assay (soft agar / Matrigel); format: cell-based, human; details: Homo sapiens, HCT-116, 168 h; HCT116, 3-dimensional growth, 1 week
Method: In order to evaluate the effect of the compounds on the capacity of tumor cells to grow without anchorage, HCT116 cells were seeded either in agar or in Matrigel (BD, France). For 3D growth experiment in soft agar in 24-well plates, 5.10^3 HCT116 cells were resuspended in 250 μl of complete medium containing 0.3% soft-agar (Difco) and different concentrations of compound (0.1, 1, 10, 17.5, 25 and 50 μM). Cells were then poured on a solidified layer of medium containing 0.5% of soft-agar plus the compound at the same concentration than in the upper layer. Cells were incubated at 37° C. for 1 week before they were analysed using a phase contrast microscope (Nikon). For 3D growth experiment in Matrigel, 10^4 HCT116 cells were resuspended in 300 μl of complete medium containing 5 mg/ml Matrigel (BD, France) and different concentrations of compound (0.1, 1, 10, 17.5, 25 and 50 μM), and poured in 24-well plates. After solidification at 37° C. for 15 min., complete medium containing the compound was added to each well. Cells were incubated for 1 week before they were collected using Matrisperse (BD, France) according to the manufacturer's instructions. After recovery, alive cells were counted with trypan blue exclusion.

HCT116 = test: Cell viability assay (MTT), Example 32; format: cell-based, human; details: for IC50: Homo sapiens, HCT-116, 144 h, day 6, 10% FBS
Method: FIG. 7: Antiproliferative effect of compounds on HCT116 (top) and MDA-MB-231 (bottom) cell lines measured by MTT viability assay. 2.5 10^3 (HCT116) or 7.5 10^3 (MDA-MB-231) cells were seeded in 48-well plates in growth medium containing 10% FBS, with or without various concentrations of test compounds. Cell cultures were fed every 3 days with the appropriate media. Cell viability was determined on day 6. Data were analyzed and IC50s were calculated from the dose-response curves using GraphPad Prism.
In order to determine one compound effect on cell viability, microculture tetrazolium assay (MTT) was performed as described by Carmichael et al., (1996) with modifications. Four human tumoral cell lines, namely HCT116 colon adenocarcinoma, H460 lung carcinoma, MCF-7 and MDA-MB-231 breast carcinoma cell lines, and 3 immortalized but non tumorigenic cell lines, namely NIH3T3 mouse fibroblasts and human breast-derived MCF10-A and human lung-derived MRC-5 were purchased at ATCC and cultured according to their recommendations. Briefly, 2.5 10^3 to 2 10^4 cells per well were seeded in 48-well plates 24 hours before drug addition. Cells were treated with 0 to 200 μM (11 concentrations) of compound solubilized in DMSO, adjusting the final concentration of DMSO to 1% in the well. Six days after treatment, the medium was replaced by PBS containing 0.5 mg/ml MTT (Sigma) and cells were incubated for 1-3 hours at 37° C. before solubilization of formazan crystals in 100% DMSO. Absorbance was measured using a spectrophotometer at a wavelength of 550 nm. Data was analyzed using the GraphPad Prism software (GraphPad Software, Inc., San Diego, USA), and IC50 (dose leading to 50% cell death) was calculated from the dose-response curves.

| IC50 (HCT116) [µM] | Compound | IC50 ([2]; Homo sapiens, HCT-116, 144 h) [µM] | IC50 (H460 lung carcinoma) [µM] | IC50 [3] [µM] | IC50 (MCF-7 breast carcinoma) [µM] | IC50 (NIH3T3 mouse fibroblasts) [µM] | further results |
| --- | --- | --- | --- | --- | --- | --- | --- |
|  | C/C=C/c1oc(CO)cc(=O)c1OCCCCCOc1ccccc1CCC [EH9301, (E)-6-(Hydroxymethyl)-2-(propen-1-yl)-3-[5-(2-propylphenyloxy)pentyloxy]-4H-pyran-4-one] | 20 | 25 | 25 | 20 | 50 | Cell architecture modification phase contrast (cell architecture): −; Colony formation (NIH3T3 cells): −; Migration (MDA-MB-231 cells [1]): no effect; IC50 (MCF10-A): > 50 µM; IC50 (MRC-5): 35 µM; Invasion (MDA-MB-231 cells [4]): No effect |
|  | O=c1cc(CO)occ1OCCCCCOc1ccc(Cl)cc1 [EH15500, 5-[5-(4-Chlorophenyloxy)pentyloxy]-2-(hydroxymethyl)-4H-pyran-4-one] | 50 | 35 | 15 | > 50 |  | Cell architecture modification phase contrast (cell architecture): +; Colony formation (NIH3T3 cells): −; Small GTPases activities Ras (Ras): −; melting point: 95 to 97 °C; general morphology of NIH3T3 cells, as detected by β-actin staining (NIH3T3): affected; Cell architecture modification actin staining (R: ruffles; FC: focal complexes) NIH3T3 (NIH3T3; 24 h treatment): cell destructuration |
|  | C/C=C/c1oc(CO)cc(=O)c1OCCCCCOc1cccc(Cl)c1 [EH16201, (E)-3-[5-(3-Chlorophenyloxy)pentyloxy]-6-(hydroxymethyl)-2-(propen-1-yl)-4H-pyran-4-one] | 50 | 20 | > 50 | 25 | 25 | IC50 (HCT116 cells): 12.5 µM |
|  | C/C=C/c1oc(CO)cc(=O)c1OCCCCCOc1ccc(Cl)cc1 [EH26101, (E)-3-[5-(4-Chlorophenyloxy)pentyloxy]-6-(hydroxymethyl)-2(propen-1-yl)-4H-pyran-4-one] | > 50 | 35 | 40 to 45 | > 50 | 1 to 5 | IC50 (HCT116 cells): 50 µM |
|  | O=C(NCc1ccccc1)c1cc(=O)c(OCCCCCOc2ccc(Cl)cc2)co1 [EH28900, N-Benzyl-5-[5-(4-Chlorophenyloxy)pentyloxy]-4-oxo-4H-pyran-2-carboxamide] | ≤ 15 | 10 | 5 | 20 | 0.5 | Cell architecture modification phase contrast (cell architecture): −; Small GTPases activities Ras (Ras): −; IC50 [2]: 25 µM; IC50 (MCF10-A): 50 µM |
|  | C/C=C/c1oc(CO)cc(=O)c1OCCCCCOc1ccc(Cl)c(Cl)c1 [EH30101] | 50 | 35 | 30 to 35 | 45 | 0.1 to 0.5 | IC50 (HCT116 cells): 7.5 µM |
| > 100 | O=c1cc(CO)occ1OCCCCCn1cnc2c(Cl)ncnc21 [EHT 0248, 5-[5-(6-Chloro-purin-9-yl)-pentyloxy]-2-hydroxymethyl-4H-pyran-4-one] |  |  |  |  |  |  |
| 4 | C/C=C/c1oc(CO)cc(=O)c1OCCCCCOc1ccc(Cl)cc1CCC [EHT 1405, (E)-3-[5-(4-chloro-2-propyl-phenoxy)-pentyloxy]-6-hydroxymethyl-2-propenyl-4H-pyran-4-one] |  |  |  |  |  |  |
|  | O=C(NC1CCCCC1)OCc1cc(=O)c(OCCCCCn2ccc3ccccc32)co1 [EHT 6231, Cyclohexyl-carbamic acid 5-(5-indol-1-yl-pentyloxy)-4-oxo-4H-pyran-2-ylmethyl ester] |  |  |  |  |  | IC50 fold higher as compared to compound EHT 7395 (HCT116; MTT, HCT116): 2 fold |
| 1.5 to 4 | O=c1cc(COC2CCCCO2)occ1OCCCCCn1ccc2ccc(Cl)cc21 (centres unmarked) [EHT 8617, 5-[5-(6-Chloro-indol-1-yl)-pentyloxy]-2-(tetrahydro-pyran-2-yloxymethyl)-4H-pyran-4-one] |  |  |  |  |  |  |
| > 100 | O=c1cc(CO)occ1OCCCCCN1CCc2ccccc21 [EHT 8650, 5-[5-(2,3-Dihydro-indol-1-yl)-pentyloxy]-2-hydroxymethyl-4H-pyran-4-one] |  |  |  |  |  |  |
